Our source for the Inhibition and inhibition values is ChEMBL document CHEMBL1124251, “Topical nonsteroidal antipsoriatic agents. 2. 2,3-(Alkylidenedioxy)naphthalene analogues of lonapalene” (1988).

In assay [1] the test system is Mus musculus. Description: Percent inhibition of arachidonic acid induced mouse ear edema at 2 mg of total dose. In kind it is functional.
Assay [2] relates to Mus musculus. Description: Percent inhibition of arachidonic acid induced mouse ear edema at 2 mg of total dose; Insufficiently soluble in acetone. Type of assay: functional, organism-based.

Take `CCCC(=O)Oc1c2c(c(OC(=O)CCC)c3cc(Cl)ccc13)OCCCO2`: the Inhibition (in general, the relative decrease from the control value, in per cent) in assay [1] was determined as 35%. Same read-out and setting: under `CC(C)C(=O)Oc1c2c(c(OC(=O)C(C)C)c3cc(Cl)ccc13)OCCCO2` stands 27%; under `CCC(=O)Oc1c2c(c(OC(=O)CC)c3cc(Cl)ccc13)OCCCO2`, 10%. As to `O=C(Oc1c2c(c(OC(=O)c3ccccc3)c3cc(Cl)ccc13)OCCCO2)c1ccccc1`, the inhibition result in assay [2] is “Insufficiently soluble in acetone”. In assay [1], `CC(C)(C)C(=O)Oc1c2c(c(OC(=O)C(C)(C)C)c3cc(Cl)ccc13)OCCO2` returned an Inhibition of 41%. With `CCC(=O)Oc1c2c(c(OC(=O)CC)c3cc(Cl)ccc13)OCO2`, the Inhibition in assay [1] turned out to be 35%. On the same count and under the same terms, under `COc1c(OC)c(OC(C)=O)c2cc(Cl)ccc2c1OC(C)=O` [LONAPALENE] stands 54%; under `CC(=O)Oc1c2c(c(OC(C)=O)c3cc(Cl)ccc13)OCCCO2`, 40%. Still for that read-out and setting: as for `CCCC(=O)Oc1c2c(c(OC(=O)CCC)c3cc(Cl)ccc13)OCCO2`, the figure is 26%; as for `O=C(Oc1c2c(c(OC(=O)c3ccccc3)c3cc(Cl)ccc13)OCO2)c1ccccc1`, 10%; as for `CCC(=O)Oc1c2c(c(OC(=O)CC)c3cc(Cl)ccc13)OCCO2`, 30%. On the same count and under the same terms, as for `CC(=O)Oc1c2c(c(OC(C)=O)c3cc(Cl)ccc13)OCO2`, the figure is 61%; as for `CC(C)(C)C(=O)Oc1c2c(c(OC(=O)C(C)(C)C)c3cc(Cl)ccc13)OCCCO2`, 10%. As for `O=C(Oc1c2c(c(OC(=O)c3ccccc3)c3cc(Cl)ccc13)OCCO2)c1ccccc1`, the inhibition entry in assay [2] is “Insufficiently soluble in acetone”.

In turn, `CC(=O)Oc1c2c(c(OC(C)=O)c3cc(Cl)ccc13)OCCO2` came in with an Inhibition in assay [1] of 24%. For `CC(C)(C)C(=O)Oc1c2c(c(OC(=O)C(C)(C)C)c3cc(Cl)ccc13)OCO2`, the Inhibition in assay [1] worked out at 8%. `CC(C)C(=O)Oc1c2c(c(OC(=O)C(C)C)c3cc(Cl)ccc13)OCCO2` gave an Inhibition in assay [1] of 75%.
